Data on one compound can be found in US12650423B2, “Pharmaceutical compositions and use thereof” (HADASIT MEDICAL RESEARCH SERVICES & DEVELOPMENT LTD., priority 2020, dated 2026).

The test system of the experiment is mouse DTH model. As to the kind of experiment: Mouse delayed-type hypersensitivity (DTH) model, oxazalone ear swelling. It is filed as in vivo. As to conditions: BALB/c mice, oxazalone challenge of right ear, 24 hr after challenge; histology FIGS. 15C-15D. Here is the method:
Mouse DTH in-vivo assay is an inflammatory model which is known as type IV hypersensitivity reactions and is mediated by soluble antigens primarily involving CD4+ or CD8+ T cell activation. This assay is characterized by the release of mediators from activated T cells. The T cells then activate local endothelial cells and recruit macrophages, which results in local inflammation and swelling. In this assay, female BALB/c mice were sensitized on the shaved abdominal skin with 100 μl of 2% oxazalone dissolved in acetone/olive oil [4:1 (vol/vol)] applied topically (day 0). DTH sensitivity was elicited 6 days later by challenging the mice with 20 μl of 0.5% oxazalone in acetone/olive oil, 10 μl administered topically to each side of the right ear. Control group was subcutaneously injected with Dexamethasone 100 μg/mouse in a total volume of 200 μl. 24 hr after challenge the swelling of the right ear was measured using a Micrometer, digital caliper (Mitutoyo Corp, Tokyo, Japan). The swelling of the left ear was served as control and the readout of this experiment model was the delta between the right and left ear (FIG. 15E).

Molecules are shown by their SMILES.

Take `OC1(c2ccc(Cl)c(C(F)(F)F)c2)CCN(CCCC(c2ccc(F)cc2)c2ccc(F)cc2)CC1` [Penfluridol]: the “effect in mouse DTH model” value was “pro-inflammatory effect”.
